One test addresses T1, delta opioid receptor (Rattus norvegicus, UniProt P33533).
T1 construct: from tissue; host or cells: forebrain of male Wistar rats
The test is described as follows: Rat Brain Delta Opioid Receptor Binding Assay-Version 1a ([3H]naltrindole). As to conditions: rat forebrain membranes, 0.1 nM [3H]naltrindole; margin of error 10-20%; read-out: r Ki δ Ver. 1a. As for the experimental part: Male, Wistar rats (150-250 g, VAF, Charles River, Kingston, N.Y.) were killed by cervical dislocation, and their brains removed and placed immediately in ice-cold Tris HCl buffer (50 mM, pH 7.4). The forebrains were separated from the remainder of the brain by a coronal transection, beginning dorsally at the colliculi and passing ventrally through the midbrain-pontine junction. After dissection, the forebrains were homogenized in Tris buffer in a Teflon®-glass homogenizer. The homogenate was diluted to a concentration of 1 g of forebrain tissue per 80 mL Tris and centrifuged at 39,000×g for 10 min. The pellet was resuspended in the same volume of Tris buffer containing 5 mM MgCl2 with several brief pulses from a Polytron homogenizer. This particulate preparation was used for the delta opioid binding assay. Following incubation with 0.1 nM of the delta selective ligand [^3H]naltrindole at 25° C. for 2.5 h in a 96-well plate with total 1 mL, the plate contents were filtered through Wallac filtermat B sheets on a Tomtec 96-well harvester. The filters were rinsed three times with 2 mL of 10 mM HEPES (pH 7.4), and dried in a microwave oven. To each sample area, Betaplate Scint scintillation fluid (LKB) was added and the resulting radioactivity quantified on a LKB (Wallac) 1205 BetaPlate liquid scintillation counter. Kd and Ki values were calculated using the GraphPad PRISM data analysis program.

Another test addresses T2, mu opioid receptor (Rattus norvegicus, UniProt P33535).
T2 construct: from tissue; host or cells: forebrain of male Wistar rats
The test is described as follows: Rat Brain Mu Opioid Receptor Binding Assay (and Version 2a, [3H]DAMGO). As to conditions: rat forebrain membranes, margin of error 10-20%, read-out: r Ki μ. The procedure, abridged:
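Displacement of the mu-selective radioligand [3H]DAMGO (0.8 nM) measured by filtration and scintillation counting after 2.5 h at 25° C. Membranes came from male Wistar rat forebrain in Tris-HCl (50 mM, pH 7.4) plus 5 mM MgCl2; Ki derived from concentration–response, % inhibition for single doses.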

The target in a further test is T3, human mu opioid receptor (Homo sapiens, UniProt P35372).
T3 construct: purchased Perkin Elmer RBHOMM400UA; host or cells: Chinese Hamster Ovary cells (recombinant expression)
The test is described as follows: Human Mu Opioid Receptor Binding Assay (CHO membranes, 3H-Damgo). As to conditions: read-out: hKi μ. The method in brief:
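Radioligand displacement of ³H-Damgo (diluted to 3.6 nM pre-mix) from recombinant human mu receptor in CHO membranes, 2 h, room temperature, 50 mM Tris pH 7.5 with 5 mM MgCl2. Bound label read by filtration and scintillation counting; 1 μM unlabelled Damgo defines nonspecific binding.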

For five molecules, Ki results are on record in patent US10213415B2, “Compounds as opioid receptor modulators” (JANSSEN PHARMACEUTICA NV, priority 2004, dated 2019).

SMILES strings stand for the structures.

T1 sequence (P33533 whole entry): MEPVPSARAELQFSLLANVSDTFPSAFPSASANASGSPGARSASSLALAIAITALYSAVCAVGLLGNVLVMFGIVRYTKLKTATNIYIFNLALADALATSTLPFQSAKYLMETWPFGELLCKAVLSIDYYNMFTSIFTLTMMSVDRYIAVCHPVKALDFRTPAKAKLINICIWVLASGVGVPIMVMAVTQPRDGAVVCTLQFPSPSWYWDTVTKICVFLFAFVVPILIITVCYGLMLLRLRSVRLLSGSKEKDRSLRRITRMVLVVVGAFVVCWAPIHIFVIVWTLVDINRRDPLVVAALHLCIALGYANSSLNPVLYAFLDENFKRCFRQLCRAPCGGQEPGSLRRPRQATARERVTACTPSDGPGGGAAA
T2 sequence (P33535 whole entry): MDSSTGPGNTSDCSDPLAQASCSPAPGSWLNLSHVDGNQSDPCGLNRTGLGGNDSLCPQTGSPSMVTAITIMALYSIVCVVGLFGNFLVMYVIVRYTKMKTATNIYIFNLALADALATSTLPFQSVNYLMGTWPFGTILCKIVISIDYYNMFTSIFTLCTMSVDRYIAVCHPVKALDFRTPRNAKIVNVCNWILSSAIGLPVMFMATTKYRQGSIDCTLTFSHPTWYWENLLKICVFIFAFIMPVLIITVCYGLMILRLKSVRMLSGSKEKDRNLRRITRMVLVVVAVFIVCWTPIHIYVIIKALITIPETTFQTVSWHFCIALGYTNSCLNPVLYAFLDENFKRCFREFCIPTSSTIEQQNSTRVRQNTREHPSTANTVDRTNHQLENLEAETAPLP
T3 sequence (P35372 whole entry): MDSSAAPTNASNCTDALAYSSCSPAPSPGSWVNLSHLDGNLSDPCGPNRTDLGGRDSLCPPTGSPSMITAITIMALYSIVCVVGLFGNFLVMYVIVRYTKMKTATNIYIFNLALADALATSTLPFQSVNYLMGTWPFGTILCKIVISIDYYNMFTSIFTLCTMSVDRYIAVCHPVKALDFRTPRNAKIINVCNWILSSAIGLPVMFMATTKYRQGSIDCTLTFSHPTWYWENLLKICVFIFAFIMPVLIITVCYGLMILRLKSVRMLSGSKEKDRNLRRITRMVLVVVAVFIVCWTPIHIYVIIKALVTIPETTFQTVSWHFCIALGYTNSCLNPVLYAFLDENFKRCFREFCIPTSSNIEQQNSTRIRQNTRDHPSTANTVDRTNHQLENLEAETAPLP

Regarding `COc1ccc(CN(C(=O)[C@@H](N)Cc2c(C)cc(O)cc2C)[C@@H](C)c2nc(-c3ccccc3)c[nH]2)cc1C(=O)Nc1ccc(C(=O)O)cc1` [Cpd 308], the Ki was determined as 0.48 nM on delta opioid receptor and 1.2 nM on mu opioid receptor.
For `COc1ccc(CN(C(=O)[C@@H](N)Cc2c(C)cc(O)cc2C)[C@@H](C)c2nc(-c3ccccc3)c[nH]2)cc1C(=O)Nc1cccc(C(=O)O)c1` [Cpd 306], in that order: 0.18 nM and 0.9 nM.
For `COc1ccc(CN(C(=O)[C@@H](N)Cc2c(C)cc(O)cc2C)[C@@H](C)c2nc(-c3ccccc3)c[nH]2)cc1C(=O)Nc1ccccc1` [Cpd 305], in that order: 1.24 nM and 0.2 nM.
For `COc1ccc(CN(C(=O)[C@@H](N)Cc2c(C)cc(O)cc2C)[C@@H](C)c2nc(-c3ccccc3)c[nH]2)cc1-c1nnn[nH]1` [Cpd 307], in that order: 0.07 nM and 0.4 nM.
As for `C[C@@H](c1nc(-c2ccccc2)c[nH]1)N(Cc1ccc(C(=O)O)o1)C(=O)[C@@H](N)Cc1ccc(C(N)=O)cc1` [Cpd 304], the Ki at delta opioid receptor is 119 nM; at human mu opioid receptor, 41 nM; on mu opioid receptor it was 161 nM.
